The source of these data is the OPERA property sets (Mansouri et al. 2018).

The molecule `O=C(Cl)CCCCl` yielded a boiling point of 174 °C.
With `COC(=O)c1cc(Oc2ccc(Cl)cc2Cl)ccc1[N+](=O)[O-]`, the log10 Koc (L/kg) was determined as 4, the log10 vapour pressure (mmHg) is -7 and the melting point worked out at 85 °C.
On to `O=C(Cl)c1ccccc1F`, for which the boiling point was 206 °C and the melting point came out at 4 °C.
The molecule `CCCC(C)C=O` (stereo not drawn) returned a boiling point of 117 °C.
Turning to `CNC(=O)Oc1c(C(C)(C)C)cc(C)cc1C(C)(C)C`, the ready biodegradability entry is given as “not readily biodegradable”.
In turn, `Cc1cc(C)c(C(=O)O)cc1C` gave a melting point of 152 °C.
Same read-out and setting: then `CN1CCN(C2=Nc3ccccc3Oc3ccc(Cl)cc32)CC1`, with 110 °C.
For `C1CCCCCCCCC1`, the boiling point was 202 °C, the log10 vapour pressure (mmHg) was -0.252 and the melting point was 10 °C.
`COC(F)(F)C(F)(F)F` showed a log10 vapour pressure (mmHg) of 3.21.
Turning to `FC(Cl)(Cl)Cl`, the boiling point is 23.7 °C, the log10 Henry constant (atm·m³/mol) was -1.01, the log10 vapour pressure (mmHg) was 2.9 and the melting point was -111 °C.
With `Nc1cc(Cl)c(Cl)c(Cl)c1`, the melting point came to 99 °C.
On to `CC[B]CC`, for which the boiling point amounted to 112 °C and the melting point was -56.3 °C.
`O=C(Oc1ccc2ccccc2c1)c1ccccc1O` yielded a melting point of 95.5 °C.
For the molecule `O=[N+]([O-])c1ccc(F)cc1O`, the log10 Henry constant (atm·m³/mol) was -4.71, the log10 vapour pressure (mmHg) is -1.64 and the melting point was found to be 36 °C.
With `CCC1(CC2(c3cccc(Cl)c3)CO2)C(=O)c2ccccc2C1=O` (stereo not drawn), the log10 vapour pressure (mmHg) is -7.7 and the melting point came out at 61 °C.
The molecule `C=Cc1ccc(C(C)C)cc1` yielded a boiling point of 204 °C and a melting point of -44.7 °C.
Regarding `c1ccc(SSc2ccccc2)cc1`, the boiling point worked out at 310 °C, the log10 vapour pressure (mmHg) is -3.66 and the melting point came out at 62 °C.
For the molecule `NC(=O)c1cccc([N+](=O)[O-])c1`, the boiling point was 312 °C, the log10 Koc (L/kg) was 1.95 and the melting point turned out to be 143 °C.
For the molecule `O=C(O)c1ccc2c(c1)OCO2`, the melting point was 229 °C.
For `CCCCOCCCC`, the boiling point was 141 °C, the log10 Henry constant (atm·m³/mol) was -2.22, the log10 Koa amounted to 3.89 and the log10 vapour pressure (mmHg) is 0.779. Moreover, the ready biodegradability result was “not readily biodegradable”.
Consider `COc1c2ccoc2cc2oc(C)cc(=O)c12`, for which the melting point was found to be 144 °C.
Regarding `CC(Cl)C(C)(C)O` (stereo not drawn), the boiling point was determined as 142 °C.
`CN(C)CCO`: the boiling point amounted to 134 °C, the log10 vapour pressure (mmHg) was found to be 0.502, the melting point was -59 °C and the ready biodegradability result is recorded as “readily biodegradable”.
The molecule `Nc1c(Cl)c(Cl)cc(Cl)c1Cl` yielded a log10 Koc (L/kg) of 3.94 and a melting point of 107 °C.
The molecule `ClCCOCOCCCl` came in with a boiling point of 218 °C, a log10 Koc (L/kg) of 1.79, a log10 vapour pressure (mmHg) of -0.879 and a melting point of -32 °C.
As to `N#CCCCCC#N`, the boiling point came out at 295 °C, the log10 vapour pressure (mmHg) was -3.17, the melting point was 1 °C and the ready biodegradability entry is on record as “readily biodegradable”.
Molecule `CCOC(=O)c1sc(N)nc1C(F)(F)F` returned a melting point of 186 °C.
In turn, `O=C(O)C=Cc1ccccc1F` showed a melting point of 179 °C.
Regarding `CC(=O)O[C@H]1[C@H]2O[C@]23[C@@H]2CC[C@]4(O)C[C@@H](O)CC[C@]4(C)[C@H]2CC[C@]3(C)[C@H]1c1ccc(=O)oc1`, the melting point worked out at 260 °C.
Molecule `CCCCCCCCCCCCCCCCC=O` had a melting point of 36 °C.
The molecule `O=C(c1ccccc1O)c1ccccc1O` registered a boiling point of 333 °C and a melting point of 59.5 °C.
Molecule `CC(C)(c1cc(Cl)c(O)c(Cl)c1)c1cc(Cl)c(O)c(Cl)c1` came in with a melting point of 135 °C.
`C#CC1(O)CCCCC1`: the boiling point is 174 °C and the melting point turned out to be 31.5 °C.
In the case of `ClC1C(Br)C(Br)C(Br)C(Br)C1Br` (stereo not drawn), the ready biodegradability entry is “not readily biodegradable”.
`C[B]C` displayed a boiling point of 70.5 °C and a melting point of -72.5 °C.
`FC(F)(F)C(F)(F)C(F)(F)C(F)(F)C(F)(F)C(F)(F)Br`: the boiling point was 98 °C.
Turning to `Cc1ccccn1`, the boiling point came out at 129 °C, the log10 Henry constant (atm·m³/mol) was -5, the log10 vapour pressure (mmHg) amounted to 1.05 and the melting point is -66.7 °C. The ready biodegradability entry was “readily biodegradable”.
Turning to `CC(N)CC(=O)O` (stereo not drawn), the melting point was 193 °C.
The molecule `COc1cc(Cl)c(Cl)cc1OC` came in with a melting point of 83 °C.
Still for that read-out and setting: under `C[C@@H]1O[C@@H](O[C@H]2CC[C@]3(C=O)[C@H]4CC[C@]5(C)[C@@H](C6=CC(=O)OC6)CC[C@]5(O)[C@@H]4CC[C@]3(O)C2)[C@H](O)[C@H](O)[C@H]1O` stands 238 °C; under `CC(=O)Oc1ccc(-c2ccccc2)cc1`, 89 °C.
Molecule `COc1ccc(Br)cc1OC` registered a boiling point of 254 °C.
Take `CCc1cccc(C)c1C`: the boiling point worked out at 194 °C, the log10 biodegradation half-life (days) was 0.778, the log10 vapour pressure (mmHg) was -0.206 and the melting point is -49.5 °C.
As for `CNC(C)=O`, the boiling point came to 205 °C, the log10 vapour pressure (mmHg) was -0.356, the melting point was determined as 28 °C and the ready biodegradability entry is on record as “readily biodegradable”.
Molecule `Cc1cccc(C)c2cc(C(C)C)cc1-2` displayed a melting point of 32.3 °C.
For the molecule `CC(Cl)(Cl)C(=O)O`, the boiling point worked out at 188 °C, the log10 Koc (L/kg) came to 0.4, the log10 vapour pressure (mmHg) was -0.821 and the melting point was -5 °C.

A word on the boiling point: it is the temperature at which the vapour pressure of the liquid equals the pressure above it. In general, melting point refers to the temperature of the solid-liquid transition.
